The results in this text go back to US11851428B2, “Activator of TREK (TWIK RElated K+channels) channels” (ONO PHARMACEUTICAL CO., LTD., priority 2016, dated 2023).

Assay [1] has as its system ICR mice. The experiment in a line: acetic acid writhing assay. The settings on record: for number of writhes induced by acetic acid: ICR mice, 2 h before acetic acid i.p., counted for 30 min, vs vehicle; for number of writhes induced by acetic acid (FIGURE legend): mouse, p.o., dose not stated in the legend, *p<0.05 vs vehicle. It counts as in vivo, mouse. As to the method: d. Analgesic Effect in Acetic Acid Writhing Assay
ICR mice were pretreated with vehicle (0.5 w/v % methyl cellulose, p.o.) or Example 1-25 compounds (0.3, 1, 3 mg/kg, p.o.) or Example 2 compounds (1, 10, 300 mg/kg, p.o.) or indomethacin (10 mg/kg, p.o.). Compounds were suspended in 0.5 w/v % methyl cellulose and indomethacin was dissolved in 0.7% sodium bicarbonate. All drugs were administered in a volume of 10 mL/kg. Two hours after administration of the disclosed compounds and vehicle, or one hour after administration of indomethacin, the animals were injected with acetic acid (0.7% v/v in saline, 10 mL/kg, i.p.). The number of writhes (characterized by contraction of the abdominal musculature and extension of the limbs) was then counted for 30 min. Analgesic effect was evaluated by comparing the number of writhes between the rest compounds group and the vehicle group.
Background: An intraperitoneal irritant provokes the stretching counted in writhing tests.

Assay [2] concerns the target T1, human TREK-1 (Homo sapiens, UniProt O95069).
T1 construct: expressed in transfected cells
T1 sequence (O95069 1-426): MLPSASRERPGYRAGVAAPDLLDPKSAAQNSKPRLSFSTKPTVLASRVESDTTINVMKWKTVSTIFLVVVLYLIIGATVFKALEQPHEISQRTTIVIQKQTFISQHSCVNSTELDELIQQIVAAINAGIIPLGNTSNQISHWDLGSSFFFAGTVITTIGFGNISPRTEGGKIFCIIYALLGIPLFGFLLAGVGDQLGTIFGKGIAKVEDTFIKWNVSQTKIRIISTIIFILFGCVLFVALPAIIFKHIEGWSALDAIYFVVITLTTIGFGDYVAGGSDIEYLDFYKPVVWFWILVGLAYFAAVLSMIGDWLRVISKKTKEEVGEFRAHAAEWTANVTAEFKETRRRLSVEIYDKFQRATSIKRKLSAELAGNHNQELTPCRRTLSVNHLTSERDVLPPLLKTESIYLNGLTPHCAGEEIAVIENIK
The experiment in a line: thallium flux assay (TREK1 activation normalized to BL-1249). It counts as cell-based. Conditions: for activation at 10 µM / TREK1 activation RBL-1249 (%): concentration of Example compound 10 μM. As to the method: The term “thallium flux assay” herein refers to a fluorescence-based assay used to monitor the activity of TREK channels. Thallium is a congener of potassium that readily fluxes through the pore of TREK channels. Thallium flux is measured using a commercially available, thallium-sensitive fluorescent dye called Thallos. The detail method is described below.
Method 1 (Thallium Flux Assay);
CHO-K1 cells stably expressing human TREK-1 or HEK293 cells stably expressing human TREK-2 are plated in 384-well plates, cultured overnight, loaded with Thallos dye the following day, treated with test compounds for 10 min, and then treated with thallium stimulus buffer to initiate thallium flux. The change in fluorescence at 25 seconds after thallium addition is normalized to baseline fluorescence (fluorescent intensity at 25 sec after Tl^+ addition)/(average of fluorescent intensity at pre-read).

Setting [3] is: normalized to 10 μM BL-1249, CHO-K1 cells stably expressing human TREK-1, read-out: TREK1 activation RBL-1249 (%).
The mark [4] stands for this setting: normalized to 10 μM BL-1249, CHO-K1 cells stably expressing human TREK-1.

Molecules are shown by their SMILES. Entries after “also recorded” stand apart in the source; their conditions may differ. Read-outs that look alike come from different tables or passages of the source.

`O=C(NCc1ccc(OC(F)(F)F)cc1F)c1ccc2ncnn2c1` [Example 1-25, N-[2-fluoro-4-(trifluoromethoxy)benzyl][1,2,4]triazolo[1,5-a]pyridine-6-carboxamide]: the “number of writhes induced by acetic acid” value in assay [1] (3 mg/kg p.o., 3 mg/kg) was “significantly decreased the number of writhes; also recorded: the same degree as indomethacin 10 mg/kg”. In addition, in assay [1], the “number of writhes induced by acetic acid (FIGURE legend)” value was “inhibit the number of writhes induced by acetic acid”. In addition, the activation at 10 µM in assay [2] (setting [3]) was determined as 82%.

For the molecule `Cc1cc(OC(F)(F)F)ccc1CNC(=O)c1ccc(-n2cncn2)nc1` [Example 2, N-[2-Methyl-4-(trifluoromethoxy)benzyl]-6-(1H-1,2,4-triazol-1-yl)nicotinamide], in assay [1] (300 mg/kg p.o., 300 mg/kg), the “number of writhes induced by acetic acid” value was “significantly decreased the number of writhes; also recorded: the same degree as indomethacin 10 mg/kg”. Also, the “number of writhes induced by acetic acid (FIGURE legend)” value in assay [1] is “inhibit the number of writhes induced by acetic acid”. In addition, the activation at 30 µM in assay [2] (concentration of Example compound 30 μM, normalized to 10 μM BL-1249, CHO-K1 cells stably expressing human TREK-1, read-out: TREK1 activation RBL-1249 (%)) worked out at 20%.

`Cn1nnc2cc(C(=O)NCc3ccc(OC(F)(F)F)cc3Cl)ccc21` [Example 9-4, N-[[2-chloro-4-(trifluoromethoxy)phenyl]methyl]-1-methylbenzotriazole-5-carboxamide]: the activation at 10 µM in assay [2] (setting [3]) was 87%.

For the molecule `O=C(NCc1ccc(OC(F)(F)F)cc1Cl)c1ccc2[nH]nnc2c1` [Example 9-7, N-[[2-chloro-4-(trifluoromethoxy)phenyl]methyl]-1H-benzotriazole-5-carboxamide], in assay [2] (setting [3]), the activation at 10 µM was 125%.

Turning to `O=C(NCc1ccc(OC(F)(F)F)cc1Cl)c1cnc2ccnn2c1` [Example 9-8, N-[[2-chloro-4-(trifluoromethoxy)phenyl]methyl]pyrazo1o[1,5-a]pyrimidine-6-carboxamide], in assay [2] (setting [4]), the “TREK1 activation RBL-1249 (%)” value turned out to be 106%.

As to `Cc1nnc2cc(C(=O)NCc3ccc(OC(F)(F)F)cc3Cl)ccn12` [Example 9-11], the “TREK1 activation RBL-1249 (%)” value in assay [2] (setting [4]) turned out to be 126%.

As for `Nc1c(C(=O)NCc2ccc(OC(F)(F)F)cc2Cl)cnc2ccnn12` [Example 9-14, 7-amino-N-[2-chloro-4-(trifluoromethoxy)benzyl]pyrazolo[1,5-a]pyrimidine-6-carboxamide], in assay [2] (setting [3]), the activation at 10 µM was found to be 79%.

`O=C(NCc1ccc(OC(F)(F)F)cc1Cl)c1ccc(-c2ncc[nH]2)cc1` [Example 9-15, N-[2-chloro-4-(trifluoromethoxy)benzyl]-4-(1H-imidazol-2-yl)benzamide]: the activation at 10 µM in assay [2] (setting [3]) came to 59%.

As for `O=C(NCc1ccc(OC(F)(F)F)cc1Cl)c1ccc2nnnn2c1` [Example 9-16, N-[2-chloro-4-(trifluoromethoxy)benzyl]tetrazolo[1,5-a]pyridine-6-carboxamide], in assay [2] (setting [3]), the activation at 10 µM stood at 95%.

On to `O=C(NCc1ccc(OC(F)(F)F)cc1Cl)c1ccn2nnnc2c1` [Example 9-17], for which the “TREK1 activation RBL-1249 (%)” value in assay [2] (setting [4]) is given as 78%.

Regarding `Cc1cc2ncc(C(=O)NCc3ccc(OC(F)(F)F)cc3Cl)cn2n1` [Example 9-19, N-[2-chloro-4-(trifluoromethoxy)benzyl]-2-methylpyrazolo[1,5-a]pyrimidine-6-carboxamide], the activation at 10 µM in assay [2] (setting [3]) was 68%.

On to `CS(=O)(=O)Nc1ccc(C(=O)NCc2ccc(Cl)cc2Cl)cc1` [N-(2,4-dichlorobenzyl)-4-[(methylsulfonyl)amino]benzamide], for which the activation at 30 µM in assay [2] (CHO-K1, read-out: TREK1 activation RBL-1249 (%)) turned out to be 54%.
